Laboratory results reported in publication PMC8401042, “Non-Toxic Dimeric Peptides Derived from the Bothropstoxin-I Are Potent SARS-CoV-2 and Papain-like Protease Inhibitors” (Molecules, 2021).
Where two headings read alike, the source gives them in different places. Bridge positions count the residues as written; N and C are the ends. Peptide text beside a SMILES is read from it. I, II: the chains in the order shown.

Legend:
SARS-CoV-2 PLpro [1] = target: T1, SARS-CoV-2 PLpro (Severe acute respiratory syndrome coronavirus 2, UniProt P0DTD1); assay: SARS-CoV-2 PLpro FRET enzyme inhibition assay; type: biochemical; conditions: for inhibition at 10 µM: 10 µM peptide, 27 µM substrate, 37 °C
SARS-CoV-2 PLpro [2] = target: T1, SARS-CoV-2 PLpro; assay: Microscale thermophoresis (MST) binding assay; conditions: 100 nM labelled PLpro, peptides 0.015 to 500 µM, 50 mM HEPES pH 7.5, 100 mM NaCl, 2 mM DTT, DMSO 5%; triplicate, Hill fit
SARS-CoV-2 = conditions: for SARS-CoV-2 % of inhibition at 100 µM: 24 h
[3] = calculated from IC50 values, Figure 3A, read-out: pIC50 (−logIC50), PLpro (converted)

Compound | inhibition at 10 µM (SARS-CoV-2 PLpro [1]; 70 nM enzyme) [%] | IC50 (SARS-CoV-2 PLpro [1]; [3]) [nM] | Kd (SARS-CoV-2 PLpro [2]) [nM] | SARS-CoV-2 % of inhibition at 100 µM (SARS-CoV-2) [%] | IC50 (SARS-CoV-2 PLpro [1]; 70 nM enzyme, 27 µM FRET substrate, 50 mM HEPES pH 7.5, 0.01% Triton X-100, 5 mM DTT, 30 min pre-incubation at 37 °C, Hill fit, two independent experiments, read-out: IC50 against PLpro) [nM] | SI = selectivity index (CC50/EC50) (SARS-CoV-2; CC50/EC50 in Vero cells)
CC(C)C[C@H](NC(=O)[C@H](Cc1c[nH]cn1)NC(=O)[C@H](Cc1ccc(O)cc1)NC(=O)[C@H](CCCNC(=N)N)NC(=O)[C@H](Cc1ccc(O)cc1)NC(=O)[C@H](CCCCN)NC(=O)[C@@H](N)CCCCN)C(=O)N[C@@H](CCCCN)C(=O)N1CCC[C@H]1C(=O)N[C@@H](Cc1ccccc1)C(=O)NCCCC[C@H](NC(=O)[C@H](Cc1ccccc1)NC(=O)[C@@H]1CCCN1C(=O)[C@H](CCCCN)NC(=O)[C@H](CC(C)C)NC(=O)[C@H](Cc1c[nH]cn1)NC(=O)[C@H](Cc1ccc(O)cc1)NC(=O)[C@H](CCCNC(=N)N)NC(=O)[C@H](Cc1ccc(O)cc1)NC(=O)[C@H](CCCCN)NC(=O)[C@@H](N)CCCCN)C(N)=O [(pBthTX-I)2K, des-Cys^11,Lys^12,Lys^13-(pBthTX-I)2K] (I: H-KKYRYHLKPFK-NH2 / II: H-KKYRYHLKPF; amide I:11-II:C) | 98 | 2400 | 900 ± 100 | – | – | –
CC(C)C[C@H](NC(=O)[C@H](Cc1c[nH]cn1)NC(=O)[C@H](Cc1ccc(O)cc1)NC(=O)[C@H](CCCNC(=N)N)NC(=O)[C@H](Cc1ccc(O)cc1)NC(=O)[C@H](CCCCN)NC(=O)[C@@H](N)CCCCN)C(=O)N[C@@H](C)C(=O)N1CCC[C@H]1C(=O)N[C@@H](Cc1ccccc1)C(=O)NCCCC[C@H](NC(=O)[C@H](Cc1ccccc1)NC(=O)[C@@H]1CCCN1C(=O)[C@H](C)NC(=O)[C@H](CC(C)C)NC(=O)[C@H](Cc1c[nH]cn1)NC(=O)[C@H](Cc1ccc(O)cc1)NC(=O)[C@H](CCCNC(=N)N)NC(=O)[C@H](Cc1ccc(O)cc1)NC(=O)[C@H](CCCCN)NC(=O)[C@@H](N)CCCCN)C(N)=O [A8] (I: H-KKYRYHLAPFK-NH2 / II: H-KKYRYHLAPF; amide I:11-II:C) | 99 | 2400 | – | – | – | –
CC(C)C[C@H](NC(=O)[C@H](Cc1c[nH]cn1)NC(=O)[C@H](Cc1ccc(O)cc1)NC(=O)[C@H](CCCNC(=N)N)NC(=O)[C@H](Cc1ccc(O)cc1)NC(=O)[C@H](CCCCN)NC(=O)[C@@H](N)CCCCN)C(=O)N[C@@H](CCCCN)C(=O)N1CCC[C@H]1C(=O)N[C@@H](C)C(=O)NCCCC[C@H](NC(=O)[C@H](C)NC(=O)[C@@H]1CCCN1C(=O)[C@H](CCCCN)NC(=O)[C@H](CC(C)C)NC(=O)[C@H](Cc1c[nH]cn1)NC(=O)[C@H](Cc1ccc(O)cc1)NC(=O)[C@H](CCCNC(=N)N)NC(=O)[C@H](Cc1ccc(O)cc1)NC(=O)[C@H](CCCCN)NC(=O)[C@@H](N)CCCCN)C(N)=O [A10] (I: H-KKYRYHLKPAK-NH2 / II: H-KKYRYHLKPA; amide I:11-II:C) | 98 | – | – | 7 | 2400 ± 200 | –
Cc1c(-c2ccc(-c3ccccc3F)cc2)nc2ccc(F)cc2c1C(=O)O [BREQ, brequinar, reference compound] | – | – | – | – | – | >25
CC[C@H](C)[C@H](N)C(=O)N[C@@H](Cc1ccccc1)C(=O)NCC(=O)N[C@@H](C)C(=O)N[C@H](C(=O)N[C@@H](CC(C)C)C(=O)N1CCC[C@H]1C(=O)N[C@@H](CC(C)C)C(=O)N[C@@H](C)C(=O)N[C@@H](CC(C)C)C(=O)NCC(=O)N[C@@H](C)C(=O)N[C@@H](CC(C)C)C(=O)N[C@@H](CCCCN)C(=O)N[C@@H](CC(N)=O)C(=O)N[C@@H](CC(C)C)C(=O)N[C@H](C(=O)N[C@@H](CCCCN)C(N)=O)[C@@H](C)CC)[C@@H](C)CC [Hy-a1, Hylin a1, reference compound] (H-IFGAILPLALGALKNLIK-NH2; N-terminus and C-terminus assumed) | 13 | – | – | 59 | – | –
